According to ChEMBL document CHEMBL1201862, “PubChem BioAssay data set” (2004):
Active and inactive are the calls of the source. For most assays here, no stated cut-off is given here; in the data, actives have a measured EC50 and inactives only a lower limit.

Tests used:
[1] = target: T1, Fatty acid synthase (Homo sapiens, UniProt P49327); experiment: inhibition of human FAS-TE enzyme activity – biochemical, endpoint fluorescence intensity, uHTS hits, dose response (AID 624327); assay type: functional;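 further: fluorescence from hydrolysis of an O-methyl fluorescein acyl ester substrate by the enzyme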
[2] = target: T1, Fatty acid synthase; experiment: inhibition of human FAS-TE enzyme activity – biochemical, kinetic fluorescence intensity, dose response (AID 624326); assay type: functional;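 further: rate of fluorescence rise from hydrolysis of a fluorogenic O-methyl fluorescein ester substrate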
[3] = cells; assay type: functional, cell-based
[4] = tested on: BJ; experiment: cells; assay type: functional, cell-based; details: Homo sapiens
[5] = Luminescence Cell-Based Dose Confirmation HTS to Identify Inhibitors of Platelet Dense Granule Release. [Related pubchem assays: 1663 (Primary HTS), 1678 (Summary of Project)]; assay type: functional
[6] = tested on: BJ; experiment: BJ-TERT fibroblast viability loss – cell-based, RAS-independent, luminescence, dose response (AID 1933); assay type: functional; details: Homo sapiens
[7] = cells; assay type: functional, cell-based; remark: listed apart in the source
[8] = DRD fibroblast viability loss – cell-based, non-viral oncogenic, luminescence, dose response (AID 1934); assay type: functional; details: Homo sapiens
[9] = target: Luciferin 4-monooxygenase (Photinus pyralis, UniProt P08659); experiment: inhibition of purified Photinus pyralis luciferase – biochemical, luminescence, dose response (AID 1891)
[10] = tested on: BJ; experiment: BJ-TERT-LT-ST fibroblast viability loss – cell-based, RAS-independent, luminescence, dose response (AID 1935); assay type: functional; details: Homo sapiens;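 further: BJ fibroblasts immortalized with TERT plus LT and ST oncogenes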
[11] = target: T2, Heat shock factor protein 1 (Mus musculus, UniProt P38532); experiment: decrease of HSF1-responsive luciferase luminescence – cell-based, NIH3T3, dose retest, confirmation (AID 2382); assay type: functional;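 further: NIH3T3 fibroblasts with HSF1-driven luciferase reporter stressed by proteasome inhibitor MG132; luminescence from HSF1-driven luciferase expression after 8 hours of MG132 stress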
T2 sequence (P38532 whole entry): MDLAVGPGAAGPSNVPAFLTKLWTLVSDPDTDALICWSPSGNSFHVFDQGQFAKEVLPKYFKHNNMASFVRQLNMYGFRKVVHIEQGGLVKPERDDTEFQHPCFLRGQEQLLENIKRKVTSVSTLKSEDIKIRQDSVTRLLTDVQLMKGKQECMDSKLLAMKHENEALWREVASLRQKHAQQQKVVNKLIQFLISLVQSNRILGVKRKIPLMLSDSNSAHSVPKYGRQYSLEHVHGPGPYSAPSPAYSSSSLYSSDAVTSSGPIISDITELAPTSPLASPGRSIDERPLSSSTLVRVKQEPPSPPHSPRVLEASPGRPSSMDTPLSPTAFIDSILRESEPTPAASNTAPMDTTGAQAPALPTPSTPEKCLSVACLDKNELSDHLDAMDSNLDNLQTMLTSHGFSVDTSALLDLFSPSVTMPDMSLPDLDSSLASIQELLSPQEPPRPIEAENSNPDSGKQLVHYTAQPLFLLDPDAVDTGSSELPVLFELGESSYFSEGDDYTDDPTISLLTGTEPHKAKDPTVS

[12] = target: T3, RNA-binding protein pos-1 (Caenorhabditis elegans, UniProt G5EF15); experiment: disruptors of C. elegans POS-1 RNA interaction – biochemical, fluorescence polarization, dose response (AID 1964);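 further: purified POS-1 fused to maltose binding protein made in E. coli; potency of compounds blocking POS-1 binding to fluorescent RNA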
T3 sequence (G5EF15 whole entry): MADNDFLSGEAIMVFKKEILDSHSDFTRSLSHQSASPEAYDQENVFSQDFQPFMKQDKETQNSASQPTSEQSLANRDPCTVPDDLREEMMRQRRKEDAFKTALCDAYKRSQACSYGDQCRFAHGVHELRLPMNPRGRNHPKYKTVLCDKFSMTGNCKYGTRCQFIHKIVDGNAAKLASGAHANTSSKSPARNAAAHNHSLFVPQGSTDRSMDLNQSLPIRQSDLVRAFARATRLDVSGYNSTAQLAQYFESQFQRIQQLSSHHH

[13] = target: T4, Histone-lysine N-methyltransferase NSD2 (Homo sapiens, UniProt O96028); assay type: biochemical
T4 sequence (O96028 whole entry): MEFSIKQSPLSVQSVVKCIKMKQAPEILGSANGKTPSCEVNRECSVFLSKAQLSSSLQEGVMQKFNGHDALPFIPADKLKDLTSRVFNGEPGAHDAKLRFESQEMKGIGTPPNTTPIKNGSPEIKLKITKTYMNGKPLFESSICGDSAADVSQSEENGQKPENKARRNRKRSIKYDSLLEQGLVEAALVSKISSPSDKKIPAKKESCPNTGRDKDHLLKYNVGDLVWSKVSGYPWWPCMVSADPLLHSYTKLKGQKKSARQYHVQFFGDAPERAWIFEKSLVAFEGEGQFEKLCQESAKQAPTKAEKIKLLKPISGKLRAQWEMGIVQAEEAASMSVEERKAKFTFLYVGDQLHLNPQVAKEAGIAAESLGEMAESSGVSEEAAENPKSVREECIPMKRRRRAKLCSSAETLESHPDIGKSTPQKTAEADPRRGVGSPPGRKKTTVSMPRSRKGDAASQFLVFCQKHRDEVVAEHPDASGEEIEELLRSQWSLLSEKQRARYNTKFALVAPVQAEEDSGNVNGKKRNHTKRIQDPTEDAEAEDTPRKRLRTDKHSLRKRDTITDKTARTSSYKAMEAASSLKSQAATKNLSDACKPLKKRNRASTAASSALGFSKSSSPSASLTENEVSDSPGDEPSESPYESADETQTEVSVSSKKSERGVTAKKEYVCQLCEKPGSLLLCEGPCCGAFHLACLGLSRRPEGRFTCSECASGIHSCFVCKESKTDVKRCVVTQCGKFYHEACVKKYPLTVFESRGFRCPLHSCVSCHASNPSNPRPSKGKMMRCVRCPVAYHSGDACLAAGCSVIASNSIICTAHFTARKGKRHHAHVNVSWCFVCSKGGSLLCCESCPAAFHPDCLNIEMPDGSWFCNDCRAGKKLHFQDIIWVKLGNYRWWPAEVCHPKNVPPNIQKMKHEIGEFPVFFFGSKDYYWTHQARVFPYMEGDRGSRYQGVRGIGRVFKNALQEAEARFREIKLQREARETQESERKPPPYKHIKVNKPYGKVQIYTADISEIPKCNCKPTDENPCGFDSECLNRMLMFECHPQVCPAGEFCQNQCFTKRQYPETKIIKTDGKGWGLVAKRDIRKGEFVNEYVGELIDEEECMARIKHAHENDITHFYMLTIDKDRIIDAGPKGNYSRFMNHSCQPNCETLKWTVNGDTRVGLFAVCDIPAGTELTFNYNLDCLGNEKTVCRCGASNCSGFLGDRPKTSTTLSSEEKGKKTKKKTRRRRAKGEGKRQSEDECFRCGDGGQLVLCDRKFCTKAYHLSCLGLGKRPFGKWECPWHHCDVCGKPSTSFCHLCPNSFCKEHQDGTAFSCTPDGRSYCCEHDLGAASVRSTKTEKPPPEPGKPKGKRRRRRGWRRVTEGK

T1 sequence (P49327 whole entry): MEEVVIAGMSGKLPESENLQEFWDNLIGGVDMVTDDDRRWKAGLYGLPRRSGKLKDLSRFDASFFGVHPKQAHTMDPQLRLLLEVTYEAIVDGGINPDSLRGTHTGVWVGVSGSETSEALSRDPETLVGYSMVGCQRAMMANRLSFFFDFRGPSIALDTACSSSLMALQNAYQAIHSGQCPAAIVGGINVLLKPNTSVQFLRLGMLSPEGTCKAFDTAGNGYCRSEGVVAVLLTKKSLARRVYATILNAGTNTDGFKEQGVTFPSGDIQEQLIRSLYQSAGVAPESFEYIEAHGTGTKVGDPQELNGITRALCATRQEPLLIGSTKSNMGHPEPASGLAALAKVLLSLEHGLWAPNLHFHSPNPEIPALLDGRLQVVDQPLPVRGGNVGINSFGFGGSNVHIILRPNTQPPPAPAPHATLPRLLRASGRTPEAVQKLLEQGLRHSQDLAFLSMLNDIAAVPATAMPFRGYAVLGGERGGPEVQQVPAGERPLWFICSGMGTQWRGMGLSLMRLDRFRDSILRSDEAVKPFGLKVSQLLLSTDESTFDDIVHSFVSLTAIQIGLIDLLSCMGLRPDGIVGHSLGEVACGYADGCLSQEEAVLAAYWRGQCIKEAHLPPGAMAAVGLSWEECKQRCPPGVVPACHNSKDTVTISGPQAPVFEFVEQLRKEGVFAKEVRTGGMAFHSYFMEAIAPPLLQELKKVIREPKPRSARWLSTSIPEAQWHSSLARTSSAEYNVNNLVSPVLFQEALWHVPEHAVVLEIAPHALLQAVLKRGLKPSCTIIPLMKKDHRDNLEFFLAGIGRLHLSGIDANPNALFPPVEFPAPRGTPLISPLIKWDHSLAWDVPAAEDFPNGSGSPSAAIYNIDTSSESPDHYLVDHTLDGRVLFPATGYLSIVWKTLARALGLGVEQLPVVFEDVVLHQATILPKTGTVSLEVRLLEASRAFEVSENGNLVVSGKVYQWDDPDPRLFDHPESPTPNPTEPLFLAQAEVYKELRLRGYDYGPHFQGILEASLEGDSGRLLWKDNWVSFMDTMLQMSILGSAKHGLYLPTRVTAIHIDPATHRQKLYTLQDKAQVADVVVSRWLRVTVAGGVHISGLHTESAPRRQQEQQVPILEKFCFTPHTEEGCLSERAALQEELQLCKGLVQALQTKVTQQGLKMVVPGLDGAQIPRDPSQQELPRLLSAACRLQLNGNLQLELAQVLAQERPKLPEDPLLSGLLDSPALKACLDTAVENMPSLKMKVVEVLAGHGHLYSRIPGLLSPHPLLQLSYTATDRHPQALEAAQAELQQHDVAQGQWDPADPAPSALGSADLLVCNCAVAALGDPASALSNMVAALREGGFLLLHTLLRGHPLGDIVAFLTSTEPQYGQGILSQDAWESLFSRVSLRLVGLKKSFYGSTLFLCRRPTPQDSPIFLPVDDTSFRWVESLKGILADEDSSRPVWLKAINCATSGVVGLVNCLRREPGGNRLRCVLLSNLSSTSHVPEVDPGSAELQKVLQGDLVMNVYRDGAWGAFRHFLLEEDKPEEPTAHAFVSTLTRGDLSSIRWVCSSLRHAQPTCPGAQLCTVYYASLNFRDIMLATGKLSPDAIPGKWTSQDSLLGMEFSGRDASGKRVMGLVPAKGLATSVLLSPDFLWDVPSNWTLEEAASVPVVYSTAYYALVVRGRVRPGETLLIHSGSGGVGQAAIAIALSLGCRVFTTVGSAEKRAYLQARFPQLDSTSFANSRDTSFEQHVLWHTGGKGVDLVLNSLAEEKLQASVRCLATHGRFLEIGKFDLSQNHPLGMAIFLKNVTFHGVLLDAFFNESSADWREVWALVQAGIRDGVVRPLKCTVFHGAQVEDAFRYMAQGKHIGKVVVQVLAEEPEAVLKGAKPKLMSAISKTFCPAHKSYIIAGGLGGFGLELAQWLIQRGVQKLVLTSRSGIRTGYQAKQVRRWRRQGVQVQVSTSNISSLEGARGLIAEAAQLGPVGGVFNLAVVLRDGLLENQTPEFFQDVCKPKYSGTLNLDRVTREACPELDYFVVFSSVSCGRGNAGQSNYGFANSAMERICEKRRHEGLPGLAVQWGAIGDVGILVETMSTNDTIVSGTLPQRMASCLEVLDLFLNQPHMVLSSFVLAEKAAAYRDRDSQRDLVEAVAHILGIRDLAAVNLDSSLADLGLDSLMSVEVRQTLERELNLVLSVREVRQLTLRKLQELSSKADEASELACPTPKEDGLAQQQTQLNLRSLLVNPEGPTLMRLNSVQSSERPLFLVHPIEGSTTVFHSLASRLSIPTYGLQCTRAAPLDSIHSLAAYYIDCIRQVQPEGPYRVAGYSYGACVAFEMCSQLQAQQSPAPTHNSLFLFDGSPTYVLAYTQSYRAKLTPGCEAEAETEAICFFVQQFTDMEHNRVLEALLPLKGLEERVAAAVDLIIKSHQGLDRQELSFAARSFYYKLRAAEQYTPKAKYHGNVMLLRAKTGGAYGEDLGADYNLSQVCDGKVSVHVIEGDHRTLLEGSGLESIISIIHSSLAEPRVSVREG
Luciferin 4-monooxygenase, sequence (P08659 whole entry): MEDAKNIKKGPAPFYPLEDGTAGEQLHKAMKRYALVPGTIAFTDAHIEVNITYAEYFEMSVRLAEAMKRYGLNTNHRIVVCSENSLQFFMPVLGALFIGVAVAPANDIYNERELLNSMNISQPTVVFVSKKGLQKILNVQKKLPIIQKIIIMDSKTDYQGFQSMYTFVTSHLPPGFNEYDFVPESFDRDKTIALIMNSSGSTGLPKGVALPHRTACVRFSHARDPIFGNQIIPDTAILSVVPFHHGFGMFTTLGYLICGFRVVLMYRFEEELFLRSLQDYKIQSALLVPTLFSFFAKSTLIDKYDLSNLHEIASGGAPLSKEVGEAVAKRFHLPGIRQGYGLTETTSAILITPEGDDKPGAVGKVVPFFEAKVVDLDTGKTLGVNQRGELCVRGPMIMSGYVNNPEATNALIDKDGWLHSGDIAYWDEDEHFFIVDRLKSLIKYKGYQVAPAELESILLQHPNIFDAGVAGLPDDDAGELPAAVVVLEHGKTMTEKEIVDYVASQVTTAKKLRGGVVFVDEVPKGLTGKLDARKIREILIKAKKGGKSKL

In the case of `Cc1ccc(NC(=O)c2cc([N+](=O)[O-])ccc2N2CCCC2)cc1`, the IC50 [1] is reported as 8.09 µM (active) and the IC50 [2] is reported as 5.53 µM (active).
In the case of `CCOc1ccc(C(=O)COC(=O)c2cc([N+](=O)[O-])ccc2N2CCOCC2)cc1`, the IC50 [1] is reported as 6.76 µM (active) and the IC50 [2] is reported as 5.81 µM (active).
For `C[C@H](CO)N1C[C@H](C)[C@@H](CN(C)Cc2ccc(Cl)c(Cl)c2)Oc2c(NS(=O)(=O)c3ccc(F)cc3)cccc2C1=O`, the IC50 [1] was 11.9 µM (active) and the IC50 [2] was 13.2 µM (active).
In the case of `Cn1c(N/N=C/c2cc3ccccc3nc2Cl)nc2ccccc21`, the EC50 [3] is reported as > 350 µM (not active), the EC50 [4] is reported as 2.58 µM (active) and the EC50 [5] is reported as 6.52 µM (active). The EC50 [6] was 6.15 µM (inconclusive), the EC50 [7] was 7.59 µM (active) and the EC50 [8] was 25.7 µM (active). The EC50 [9] was 0.687 µM (active) and the EC50 [10] was > 150 µM (not active).
For `C/C(=N/N=C/c1ccc(N(C)C)cc1)c1ccccc1`, the EC50 [4] was 13.5 µM (active), the EC50 [5] was 1.61 µM (active) and the EC50 [6] was 26.5 µM (active). The EC50 [8] was 17.1 µM (active), the EC50 [9] was 0.875 µM (active) and the EC50 [10] was > 150 µM (not active).
With `CC(C)(C)c1ccc(/C=N/NC(=S)NC2CCCCC2)cc1` the IC50 [1] was 12.7 µM (active) and the IC50 [2] was 15.4 µM (active).
With `Cc1cc(=O)n2c(n1)/C(=N\Nc1ccccc1)C(=O)N2` the EC50 [11] was > 195 µM (not active) and the EC50 [12] was 0.374 µM (inconclusive).
In the case of `O=C(N/N=C/c1ccc(Br)o1)/C(=C/c1ccc([N+](=O)[O-])cc1)NC(=O)c1ccccc1`, the IC50 [1] is reported as 9.86 µM (active) and the IC50 [2] is reported as 10.8 µM (active).
With `O=C1c2cc(O)c(O)cc2OC(c2ccc(O)c(O)c2)C1O` (configuration not stated) the AC50 [13] was 12.9 µM (active).
